From PubChem BioAssay (NCI)
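Dose response: 5 concentrations. Exposure: 48 h. Format: 96-well plates. Endpoint: linear interpolation; highest concentration if not reached. TGI: total growth inhibition.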

How the values were obtained:
Assay in all cases: growth of human tumour cells (NCI), 48 h
OVCAR-5 ovarian = system: OVCAR-5 ovarian
IGROV1 ovarian = system: IGROV1 ovarian
NCI-H522 lung = system: NCI-H522 lung
SN12C renal = system: SN12C renal
HCT-116 colon = system: HCT-116 colon
MCF7 breast = system: MCF7 breast
LOX IMVI melanoma = system: LOX IMVI melanoma
U251 CNS = system: U251 CNS
OVCAR-4 ovarian = system: OVCAR-4 ovarian
NCI/ADR-RES ovarian = system: NCI/ADR-RES ovarian
HCT-15 colon = system: HCT-15 colon
MDA-MB-231 breast = system: MDA-MB-231 breast
SK-OV-3 ovarian = system: SK-OV-3 ovarian
PC-3 prostate = system: PC-3 prostate
NCI-H226 lung = system: NCI-H226 lung
SF-295 CNS = system: SF-295 CNS
MDA-MB-435 = system: MDA-MB-435
UACC-62 melanoma = system: UACC-62 melanoma
COLO 205 colon = system: COLO 205 colon
786-0 renal = system: 786-0 renal
MDA-N = system: MDA-N
SK-MEL-5 melanoma = system: SK-MEL-5 melanoma
BT-549 breast = system: BT-549 breast
CAKI-1 renal = system: CAKI-1 renal
EKVX NSCLC = system: EKVX NSCLC
SNB-75 CNS = system: SNB-75 CNS
DU-145 prostate = system: DU-145 prostate
UACC-257 melanoma = system: UACC-257 melanoma
TK-10 renal = system: TK-10 renal
RPMI-8226 leukemia = system: RPMI-8226 leukemia
MALME-3M melanoma = system: MALME-3M melanoma
K-562 leukemia = system: K-562 leukemia
RXF 393 renal = system: RXF 393 renal
HOP-92 NSCLC = system: HOP-92 NSCLC
ACHN renal = system: ACHN renal
SK-MEL-2 melanoma = system: SK-MEL-2 melanoma
NCI-H23 lung = system: NCI-H23 lung
HCC-2998 colon = system: HCC-2998 colon
SK-MEL-28 melanoma = system: SK-MEL-28 melanoma
A549 NSCLC = system: A549 NSCLC
NCI-H460 lung = system: NCI-H460 lung
OVCAR-3 ovarian = system: OVCAR-3 ovarian
CCRF-CEM leukemia = system: CCRF-CEM leukemia
SF-539 CNS = system: SF-539 CNS
KM12 colon = system: KM12 colon
SNB-19 CNS = system: SNB-19 CNS
HT29 colon = system: HT29 colon
SF-268 CNS = system: SF-268 CNS
OVCAR-8 ovarian = system: OVCAR-8 ovarian
M14 melanoma = system: M14 melanoma
MOLT-4 leukemia = system: MOLT-4 leukemia
HOP-62 NSCLC = system: HOP-62 NSCLC
UO-31 renal = system: UO-31 renal
HS 578T breast = system: HS 578T breast
T-47D breast = system: T-47D breast
A498 renal = system: A498 renal
SW-620 colon = system: SW-620 colon
HL-60(TB) leukemia = system: HL-60(TB) leukemia

`C=CCN(c1cc(OCc2ccccc2)c2c(c(C)cn2S(=O)(=O)c2ccc([N+](=O)[O-])cc2)c1[N+](=O)[O-])S(C)(=O)=O` was tested, and the TGI (OVCAR-5 ovarian) was over 100 µM, the TGI (IGROV1 ovarian) was over 100 µM and the TGI (NCI-H522 lung) was over 100 µM. It also gave a TGI (SN12C renal) of over 100 µM, a TGI (HCT-116 colon) of over 100 µM and a TGI (MCF7 breast) of over 100 µM. It also gave a TGI (LOX IMVI melanoma) of over 100 µM, a TGI (U251 CNS) of over 100 µM and a TGI (OVCAR-4 ovarian) of over 100 µM. It also gave a TGI (NCI/ADR-RES ovarian) of over 100 µM, a TGI (HCT-15 colon) of over 100 µM and a TGI (MDA-MB-231 breast) of over 100 µM. It also gave a TGI (SK-OV-3 ovarian) of over 100 µM, a TGI (PC-3 prostate) of over 100 µM and a TGI (NCI-H226 lung) of over 100 µM. It also gave a TGI (SF-295 CNS) of over 100 µM, a TGI (MDA-MB-435) of 54.1 µM and a TGI (UACC-62 melanoma) of over 100 µM. The TGI (COLO 205 colon) was over 100 µM, the TGI (786-0 renal) was over 100 µM and the TGI (MDA-N) was over 100 µM. The TGI (SK-MEL-5 melanoma) was over 100 µM, the TGI (BT-549 breast) was over 100 µM and the TGI (CAKI-1 renal) was over 100 µM. The TGI (EKVX NSCLC) was over 100 µM, the TGI (SNB-75 CNS) was over 100 µM and the TGI (DU-145 prostate) was over 100 µM. For the same compound, the TGI (UACC-257 melanoma) was over 100 µM, the TGI (TK-10 renal) was over 100 µM and the TGI (RPMI-8226 leukemia) was over 100 µM. The TGI (MALME-3M melanoma) was over 100 µM, the TGI (K-562 leukemia) was over 100 µM and the TGI (RXF 393 renal) was over 100 µM. The TGI (HOP-92 NSCLC) was over 100 µM, the TGI (ACHN renal) was over 100 µM and the TGI (SK-MEL-2 melanoma) was over 100 µM. For the same compound, the TGI (NCI-H23 lung) was over 100 µM, the TGI (HCC-2998 colon) was over 100 µM and the TGI (SK-MEL-28 melanoma) was over 100 µM. The TGI (A549 NSCLC) was over 100 µM, the TGI (NCI-H460 lung) was over 100 µM and the TGI (OVCAR-3 ovarian) was over 100 µM. For the same compound, the TGI (CCRF-CEM leukemia) was over 52.3 µM, the TGI (SF-539 CNS) was over 100 µM and the TGI (KM12 colon) was over 100 µM. For the same compound, the TGI (SNB-19 CNS) was over 100 µM, the TGI (HT29 colon) was over 100 µM and the TGI (SF-268 CNS) was over 100 µM. For the same compound, the TGI (OVCAR-8 ovarian) was over 100 µM, the TGI (M14 melanoma) was over 100 µM and the TGI (MOLT-4 leukemia) was over 100 µM. It also gave a TGI (HOP-62 NSCLC) of over 100 µM, a TGI (UO-31 renal) of over 100 µM and a TGI (HS 578T breast) of over 100 µM. For the same compound, the TGI (T-47D breast) was over 100 µM.
`C[n+]1c2ccccc2c2/c(=C\C#N)c3ccccc3n21` showed a TGI (OVCAR-5 ovarian) of 26.1 µM, a TGI (IGROV1 ovarian) of 12.2 µM and a TGI (SN12C renal) of 38 µM. It also gave a TGI (HCT-116 colon) of 8.45 µM, a TGI (MCF7 breast) of 21.7 µM and a TGI (LOX IMVI melanoma) of 16.6 µM. It also gave a TGI (U251 CNS) of 13.9 µM, a TGI (OVCAR-4 ovarian) of 11.4 µM and a TGI (NCI/ADR-RES ovarian) of over 100 µM. It also gave a TGI (HCT-15 colon) of 97.2 µM, a TGI (MDA-MB-231 breast) of 82.3 µM and a TGI (SK-OV-3 ovarian) of 16 µM. The TGI (NCI-H226 lung) was 17.6 µM, the TGI (SF-295 CNS) was 19.2 µM and the TGI (MDA-MB-435) was 28.1 µM. The TGI (UACC-62 melanoma) was 54.2 µM, the TGI (COLO 205 colon) was 4.87 µM and the TGI (786-0 renal) was 14.8 µM. For the same compound, the TGI (MDA-N) was 18.6 µM, the TGI (SK-MEL-5 melanoma) was 61.3 µM and the TGI (BT-549 breast) was 8.42 µM. For the same compound, the TGI (CAKI-1 renal) was 95.4 µM, the TGI (EKVX NSCLC) was 6.54 µM and the TGI (SNB-75 CNS) was 8.16 µM. For the same compound, the TGI (DU-145 prostate) was 45.8 µM, the TGI (UACC-257 melanoma) was 20.8 µM and the TGI (TK-10 renal) was 8.46 µM. For the same compound, the TGI (RPMI-8226 leukemia) was 16.9 µM, the TGI (A498 renal) was 82.8 µM and the TGI (MALME-3M melanoma) was 7.55 µM. The TGI (K-562 leukemia) was over 100 µM, the TGI (RXF 393 renal) was 21.9 µM and the TGI (ACHN renal) was 18.5 µM. It also gave a TGI (SK-MEL-2 melanoma) of 8.52 µM, a TGI (NCI-H23 lung) of 77.1 µM and a TGI (HCC-2998 colon) of 5.27 µM. The TGI (SW-620 colon) was 11.8 µM, the TGI (SK-MEL-28 melanoma) was 30.3 µM and the TGI (A549 NSCLC) was 32.9 µM. For the same compound, the TGI (NCI-H460 lung) was 22.8 µM, the TGI (OVCAR-3 ovarian) was 33.1 µM and the TGI (CCRF-CEM leukemia) was 50.2 µM. It also gave a TGI (HL-60(TB) leukemia) of 26.3 µM, a TGI (SF-539 CNS) of 17.5 µM and a TGI (KM12 colon) of 31.7 µM. For the same compound, the TGI (SNB-19 CNS) was over 100 µM, the TGI (HT29 colon) was 16.5 µM and the TGI (SF-268 CNS) was 29.3 µM. It also gave a TGI (OVCAR-8 ovarian) of 15.9 µM, a TGI (M14 melanoma) of 18.6 µM and a TGI (MOLT-4 leukemia) of 57.7 µM. For the same compound, the TGI (HOP-62 NSCLC) was 8.17 µM, the TGI (UO-31 renal) was 26.7 µM and the TGI (HS 578T breast) was over 100 µM. It also gave a TGI (T-47D breast) of 58.5 µM.
`NC12CC3C4CC5(N)CC3C(C1)C(C5)C4C2` was tested, and the TGI (OVCAR-5 ovarian) was over 100 µM, the TGI (IGROV1 ovarian) was over 100 µM and the TGI (NCI-H522 lung) was over 100 µM. For the same compound, the TGI (SN12C renal) was over 100 µM, the TGI (HCT-116 colon) was over 100 µM and the TGI (MCF7 breast) was over 100 µM. For the same compound, the TGI (LOX IMVI melanoma) was over 100 µM, the TGI (U251 CNS) was over 100 µM and the TGI (OVCAR-4 ovarian) was over 100 µM. It also gave a TGI (NCI/ADR-RES ovarian) of over 100 µM, a TGI (HCT-15 colon) of over 100 µM and a TGI (MDA-MB-231 breast) of over 100 µM. The TGI (SK-OV-3 ovarian) was over 100 µM, the TGI (PC-3 prostate) was over 100 µM and the TGI (NCI-H226 lung) was over 100 µM. It also gave a TGI (SF-295 CNS) of over 100 µM, a TGI (MDA-MB-435) of over 100 µM and a TGI (UACC-62 melanoma) of over 100 µM. It also gave a TGI (COLO 205 colon) of over 100 µM, a TGI (786-0 renal) of over 100 µM and a TGI (MDA-N) of over 100 µM. The TGI (SK-MEL-5 melanoma) was over 100 µM, the TGI (BT-549 breast) was over 100 µM and the TGI (CAKI-1 renal) was over 100 µM. For the same compound, the TGI (EKVX NSCLC) was over 100 µM, the TGI (UACC-257 melanoma) was over 100 µM and the TGI (TK-10 renal) was over 100 µM. The TGI (A498 renal) was over 100 µM, the TGI (MALME-3M melanoma) was over 100 µM and the TGI (K-562 leukemia) was over 100 µM. The TGI (RXF 393 renal) was over 100 µM, the TGI (HOP-92 NSCLC) was over 100 µM and the TGI (ACHN renal) was over 100 µM. The TGI (SK-MEL-2 melanoma) was over 100 µM, the TGI (NCI-H23 lung) was over 100 µM and the TGI (SW-620 colon) was over 100 µM. For the same compound, the TGI (SK-MEL-28 melanoma) was over 100 µM, the TGI (A549 NSCLC) was over 100 µM and the TGI (NCI-H460 lung) was over 100 µM. It also gave a TGI (OVCAR-3 ovarian) of over 100 µM, a TGI (CCRF-CEM leukemia) of over 100 µM and a TGI (HL-60(TB) leukemia) of over 100 µM. It also gave a TGI (KM12 colon) of over 100 µM, a TGI (SNB-19 CNS) of over 100 µM and a TGI (HT29 colon) of over 100 µM. For the same compound, the TGI (SF-268 CNS) was over 100 µM, the TGI (OVCAR-8 ovarian) was over 100 µM and the TGI (M14 melanoma) was over 100 µM. The TGI (MOLT-4 leukemia) was over 100 µM, the TGI (HOP-62 NSCLC) was over 100 µM and the TGI (UO-31 renal) was over 100 µM. For the same compound, the TGI (HS 578T breast) was over 100 µM and the TGI (T-47D breast) was over 100 µM.
